In US7893299B2, “Interleukin-1 and tumor necrosis factor-αmodulators; syntheses of such modulators and methods of using such modulators” (Nereus Pharmaceuticals, Inc., priority 2005, dated 2011):

How the values were obtained:
[1] = system: cells obtained from Bortezomib-refractory MM patient; assay: viability of purified patient MM cells; assay type: cell-based; conditions: in vitro
Excerpt: Besides nuclear condensation, NF-KB inhibitor triggered proteolytic cleavage of poly (ADP ribose) polymerase (PARP), a hallmark of apoptosis.

[2] = 48 hr cytotoxicity, B16-F10 melanoma; assay type: cell-based, murine; conditions: mouse, B16-F10 melanoma cells, 10% FBS, individual values
Method: (§1) B16-F10 (ATCC; CRL-6475), DU 145 (ATCC; HTB-81), HEK293 (ATCC; CRL-1573), HT-29 (ATCC; HTB-38), LoVo (ATCC; CCL-229), MDA-MB-231 (ATCC; HTB-26), MIA PaCa-2 (ATCC; CRL-1420), NCI-H292 (ATCC; CRL-1848), OVCAR-3 (ATCC, HTB-161), PANC-1 (ATCC; CRL-1469), PC-3 (ATCC; CRL-1435), RPMI 8226 (ATCC; CCL-155) and U266 (ATCC; TIB-196) are maintained in appropriate culture media. The cells are cultured in an incubator at 37° C. in 5% CO2 and 95% humidified air.
(§2) For cell growth inhibition assays, B16-F10, DU 145, HEK293, HT-29, LoVo, MDA-MB-231, MIA PaCa-2, NCI-H292, OVCAR-3, PANC-1, PC-3, RPMI 8226 and U266 cells are seeded at 1.25×10^3, 5×10^3, 1.5×10^4, 5×10^3, 5×10^3, 1×10^4, 2×10^3, 4×10^3, 1×10^4, 7.5×10^3, 5×10^3, 2×10^4, 2.5×10^4 cells/well respectively in 90 μl complete media into Corning 3904 black-walled, clear-bottom tissue culture plates. 20 mM stock solutions of compounds of Formula II, IIA, and IIB are prepared in 100% DMSO, aliquoted and stored at −80° C. Compounds of Formula II, IIA, and IIB are serially diluted and added in triplicate to the test wells resulting in final concentrations ranging from of 20 μM to 0.2 pM. The plates are returned to the incubator for 48 hours. The final concentration of DMSO is 0.25% in all samples.
(§3) Following 48 hours of drug exposure, 10 μl of 0.2 mg/ml resazurin (obtained from Sigma-Aldrich Chemical Co.) in Mg^2+, Ca^2+ free phosphate buffered saline is added to each well and the plates are returned to the incubator for 3-6 hours. Since living cells metabolize Resazurin, the fluorescence of the reduction product of Resazurin is measured using a Fusion microplate fluorometer (Packard Bioscience) with λex=535 nm and λem=590 nm filters. Resazurin dye in medium without cells was used to determine the background, which is subtracted from the data for all experimental wells.

B16-F10 melanoma cells = assay: 48 hr cytotoxicity, B16-F10 melanoma; assay type: cell-based, murine; conditions: 10% FBS, individual values
Method: as §1, §2, §3

[3] = system: Bcl-2-overexpressing MM.1S cells; assay: viability of Bcl-2-overexpressing MM.1S cells; assay type: cell-based; conditions: 48 hours; 0, 12, 25 and 50 uM
Method: Two cell-based assays were treated with NPI-1387 for 48 hours at concentrations of 0, 12, 25 and 50 uM. Both Bcl-2-overexpressing MM.1S cells and bortezomib-resistant DHL-4 lymphoma cells were used and the percentage of viable cells of each was recorded. […] (See FIG. 67).

MM cells = assay: MM cell death after 48 hours on co-administration with other drugs; assay type: cell-based
Method: In Vitro assays measuring the percentage of MM cell death after 48 hours were carried out with bortezomib and dexamethasone, each in concert with NPI-1387. […] (See FIGS. 70 and 71).

IκBα phosphorylation = assay: phosphorylation of IκBα induced by Toll-like receptor ligands in RPMI 8226 cells; assay type: cell-based; conditions: 13 μM
Method: One ml/well of 2×10^6/ml RPMI 8226 cells (#CCL-155C, American Type Culture Collection) were seeded in 6-well plate in LGM-3 medium and cultured for overnight at 37° C., 5% CO2 and 95% humidified air. Formula (IIB-A1) was added to RPMI 8226 cells at the final concentration of 13 μM for 1 hr. DMSO was used as a control. Cells were then stimulated with 50 ng/ml LPS, 2 μg/ml Lipoteichoic acid (LTA) and CpG DNA for various length of time. At the end of each period of stimulation, cells were harvested by centrifugation and cell pellets were washed once in ice-cold 1× Dulbecco's Phosphate buffered Saline (DPBS). To prepare samples for SDS-PAGE, cells were lysed in RIPA buffer (50 mM Tris-HCl, pH7.4, 0.9% NaCl, 1% Triton X-100, 0.25% Na-deoxycholate, 1 mM EDTA, 2 mM Na3VO4 and 1× protease inhibitors cocktail) for 15 min on ice. Cell lysates were cleared by centrifugation at 14,000 rpm, 4° C. for 10 min. Protein concentrations of cell lysates were determined by BCA protein assay kit prior to SDS-PAGE. Equal amount of proteins from various cell lysates were resolved on 10% NuPage MES precast gels and transferred to nitrocellulose membranes according to the manufacturer's instructions. […]

| SMILES | viability of cells from Bortezomib-refractory MM patient [1] | cytotoxicity at 48 h [2] | % cytotox (B16-F10 melanoma cells) | IC50 (B16-F10 melanoma cells) | IC50 (B16-F10 melanoma cells; Mus musculus, B16-F10, 48 h) | percentage of viable cells [3] | percentage of MM cell death, co-administration with bortezomib (MM cells) | percentage of MM cell death, co-administration with dexamethasone (MM cells) | phosphorylation of IκBα induced by Toll-like receptor ligands (LTA, CpG DNA) (IκBα phosphorylation) | phosphorylation of IκBα induced by Toll-like receptor ligands (LTA, CpG DNA) (IκBα phosphorylation; listed as formula (IIB-A1)) |
| --- | --- | --- | --- | --- | --- | --- | --- | --- | --- | --- |
| C=CC(=O)C1(C)CCCC2(C)C3=CCC(C)(C=C)C[C@@H]3CC[C@H]12 (stereo in doubt) [NPI-1387, 1-[(1S,4aS,7R)-1,4a,7-Trimethyl-7-vinyl-1,2,3,4,4a,6,7,8,8a,9,10,10a-dodecahydro-1-phenanthrenyl]-2-propen-1-one] | decreases the viability | 94% | 92% | 7.5 µM | 6.2 µM | marked decrease in the percentage of viable cells | additive effects in increasing the percentage of MM cell death | additive effects in increasing the percentage of MM cell death |  |  |
| C=C[C@@]1(C)CCC=C2[C@H]1CC[C@@H]1[C@](C)(C(=O)NC3CCCCC3)CCC[C@@]21C [Formula (IIB-A1), N-Cyclohexylamide Derivative of TTL] |  |  |  |  |  |  |  |  | inhibits the phosphorylation of IκBα induced by Toll-like receptor ligands | inhibits the phosphorylation of IκBα induced by LTA and CpG DNA |
